Assay results published in ChEMBL document CHEMBL1154043, “Synthesis and structure-activity relationship of a novel series of heterocyclic sulfonamide gamma-secretase inhibitors” (Bioorg Med Chem, 2009).
The source made the active and inactive calls. The calls are words filed in the database; no cut-off is given here.

What was measured:
[1] = Selectivity for gamma-secretase-mediated APP cleavage over gamma-secretase-mediated notch processing
[2] = Inhibition of gamma-secretase assessed as increase in beta-C-terminal fragment level after 24 hrs by double sandwich ELISA
CHO = test: (§1) Inhibition of gamma-secretase-mediated cleavage of human APP expressed in CHO cells assessed as reduction in amyloid beta42 production after 24 hrs by double sandwich ELISA; assay type: cell-based
[3] = Inhibition of gamma-secretase-mediated mouse notch cleavage expressed in CHOK1 cells assessed as secreted alkaline phosphatase level after 48 hrs by chemiluminescence assay; assay type: cell-based; conditions: CHO-K1, 48 h
Gamma-secretase = test: (§2) Displacement of [3H](S)-5-chloro-N-(3-ethyl-1-hydroxypentan-2-yl)thiophene-2-sulfonamide from gamma secretase in human SH-SY5Y cells after 1 hr; assay type: cell-based
[4] = Inhibition of gamma-secretase-mediated cleavage of human APP expressed in CHO cells assessed as reduction in amyloid beta40 production after 24 hrs by double sandwich ELISA; assay type: cell-based
[5] = Selectivity ratio of EC50 for gamma-secretase-mediated mouse notch cleavage to EC50 for gamma-secretase-mediated amyloid beta40 production
[6] = Inhibition of gamma-secretase assessed as effect on APP level after 24 hrs by double sandwich ELISA
[7] = as §1; assay type: cell-based
[8] = target: Gamma-secretase (Homo sapiens) (UniProt Q96BI3+Q9NZ42+Q8WW43+P49768+Q92542+P49810); test: as §2; assay type: cell-based

| Selectivity ratio [1] | Activity [2] | EC50 [3] [nM] | IC50 (Gamma-secretase) [nM] | EC50 [4] [nM] | Selectivity ratio [5] | Activity [6] | EC50 [7] [nM] | Activity [8] | SMILES | Activity (CHO) |
| --- | --- | --- | --- | --- | --- | --- | --- | --- | --- | --- |
| 15 |  |  |  |  |  |  |  |  | C[C@H](c1ccc(F)cc1CCCC(=O)O)N(c1cc(F)ccc1F)S(=O)(=O)c1ccc(Cl)cc1 |  |
|  | Active | 1800 | 154 | 92 | 20 | Active |  |  | CCC(CC)[C@H](NS(=O)(=O)c1ccc(Cl)s1)c1ccnn1Cc1ccc(O)cc1 | Active |
|  |  |  |  | 29 |  |  | 29 | Active | CCC(CC)[C@@H](CO)NS(=O)(=O)c1ccc(Cl)s1 [GSI-136] |  |
